{"source": "patent US20070259841A1", "about": "“Combinations for the treatment of rheumatoid arthritis” (CombinatoRx, Incorporated, priority 2002, published 2007)", "key": {"[1]": {"settings": "200 mg/day orally; cited from earlier work"}, "TNF-α secretion": {"tested_on": "TNF-α secretion", "assay": "TNF-α ELISA: TNF-alpha suppression in PMA/ionomycin-induced white blood cells", "settings": "for TNF-α inhibition achievable by steroid alone: even at very high concentrations"}}}
{"smiles": "CC(=O)N1CCN(c2ccc(OCC3COC(Cn4ccnc4)(c4ccc(Cl)cc4Cl)O3)cc2)CC1", "note": "(stereo not shown) [ketoconazole]", "values": [{"measurement": "serum concentration", "setting": "[1]", "result": "about 3.2 micrograms"}]}
{"smiles": "CC(=O)OCC(=O)[C@@]1(OC(C)=O)[C@@H](C)C[C@H]2[C@@H]3C[C@H](F)C4=CC(=O)C=C[C@]4(C)[C@@]3(F)[C@@H](O)C[C@@]21C", "note": "[Diflorasone, diflorasone]", "values": [{"measurement": "TNF-alpha Suppression", "setting": "TNF-α secretion; Diflorasone 0.5 nM, Clotrimazole 0.000 μM", "result": 9.84, "unit": "%"}, {"measurement": "TNF-alpha Suppression", "setting": "TNF-α secretion; Diflorasone 0.9 nM, Clotrimazole 0.000 μM", "result": 16.12, "unit": "%"}, {"measurement": "TNF-alpha Suppression", "setting": "TNF-α secretion; Diflorasone 1.9 nM, Clotrimazole 0.000 μM", "result": 21.93, "unit": "%"}, {"measurement": "TNF-alpha Suppression", "setting": "TNF-α secretion; Diflorasone 3.8 nM, Clotrimazole 0.000 μM", "result": 29.01, "unit": "%"}, {"measurement": "TNF-alpha Suppression", "setting": "TNF-α secretion; Diflorasone 7.5 nM, Clotrimazole 0.000 μM", "result": 36.86, "unit": "%"}, {"measurement": "TNF-alpha Suppression", "setting": "TNF-α secretion; Diflorasone 15.0 nM, Clotrimazole 0.000 μM", "result": 41.37, "unit": "%"}, {"measurement": "TNF-alpha Suppression", "setting": "TNF-α secretion; Diflorasone 30.0 nM, Clotrimazole 0.000 μM", "result": 49.96, "unit": "%"}, {"measurement": "TNF-alpha Suppression", "setting": "TNF-α secretion; Diflorasone 60.0 nM, Clotrimazole 0.000 μM", "result": 48.95, "unit": "%"}, {"measurement": "TNF-alpha Suppression", "setting": "TNF-α secretion; Diflorasone 120.0 nM, Clotrimazole 0.000 μM", "result": 47.05, "unit": "%"}, {"measurement": "TNF-α inhibition achievable by steroid alone", "setting": "TNF-α secretion; diflorasone alone", "result": 47, "unit": "%"}, {"measurement": "suppression of TNF-α secretion", "setting": "TNF-α secretion; single agent concentration of 3.8 nM, P/I stimulated PBMCs", "result": 29, "unit": "%"}]}
{"smiles": "C[C@@H]1C[C@H]2[C@@H]3CCC4=CC(=O)C=C[C@]4(C)[C@@]3(F)[C@@H](O)C[C@]2(C)[C@@]1(O)C(=O)CO", "note": "[Dexamethasone, dexamethasone]", "values": [{"measurement": "TNF-alpha Suppression", "setting": "TNF-α secretion; Dexamethasone 1.0 nM, Econazole 0.000 μM", "result": 23.96, "unit": "%"}, {"measurement": "TNF-alpha Suppression", "setting": "TNF-α secretion; Dexamethasone 2.0 nM, Econazole 0.000 μM", "result": 33.10, "unit": "%"}, {"measurement": "TNF-alpha Suppression", "setting": "TNF-α secretion; Dexamethasone 4.0 nM, Econazole 0.000 μM", "result": 36.87, "unit": "%"}, {"measurement": "TNF-alpha Suppression", "setting": "TNF-α secretion; Dexamethasone 8.0 nM, Econazole 0.000 μM", "result": 40.33, "unit": "%"}, {"measurement": "TNF-alpha Suppression", "setting": "TNF-α secretion; Dexamethasone 16.0 nM, Econazole 0.000 μM", "result": 44.12, "unit": "%"}, {"measurement": "TNF-alpha Suppression", "setting": "TNF-α secretion; Dexamethasone 32.0 nM, Econazole 0.000 μM", "result": 51.26, "unit": "%"}, {"measurement": "TNF-alpha Suppression", "setting": "TNF-α secretion; Dexamethasone 64.0 nM, Econazole 0.000 μM", "result": 54.35, "unit": "%"}, {"measurement": "TNF-alpha Suppression", "setting": "TNF-α secretion; Dexamethasone 127.0 nM, Econazole 0.000 μM", "result": 52.97, "unit": "%"}, {"measurement": "TNF-alpha Suppression", "setting": "TNF-α secretion; Dexamethasone 255.0 nM, Econazole 0.000 μM", "result": 59.93, "unit": "%"}, {"measurement": "TNF-α inhibition achievable by steroid alone", "setting": "TNF-α secretion; dexamethasone alone", "result": 60, "unit": "%"}, {"measurement": "suppression of TNF-α secretion", "setting": "TNF-α secretion; single agent concentration of 4 nM, PMA and ionomycin stimulated PBMCs", "result": 40, "unit": "%"}]}
{"smiles": "Clc1ccc(COC(Cn2ccnc2)c2ccc(Cl)cc2Cl)cc1", "note": "(stereo not shown) [Econazole, econazole]", "values": [{"measurement": "TNF-alpha Suppression", "setting": "TNF-α secretion; Dexamethasone 0.0 nM, Econazole 0.035 μM", "result": 13.30, "unit": "%"}, {"measurement": "TNF-alpha Suppression", "setting": "TNF-α secretion; Dexamethasone 0.0 nM, Econazole 0.070 μM", "result": 20.05, "unit": "%"}, {"measurement": "TNF-alpha Suppression", "setting": "TNF-α secretion; Dexamethasone 0.0 nM, Econazole 0.141 μM", "result": 14.11, "unit": "%"}, {"measurement": "TNF-alpha Suppression", "setting": "TNF-α secretion; Dexamethasone 0.0 nM, Econazole 0.281 μM", "result": 16.99, "unit": "%"}, {"measurement": "TNF-alpha Suppression", "setting": "TNF-α secretion; Dexamethasone 0.0 nM, Econazole 1.124 μM", "result": 38.71, "unit": "%"}, {"measurement": "TNF-alpha Suppression", "setting": "TNF-α secretion; Dexamethasone 0.0 nM, Econazole 2.249 μM", "result": 43.90, "unit": "%"}, {"measurement": "TNF-alpha Suppression", "setting": "TNF-α secretion; Dexamethasone 0.0 nM, Econazole 4.497 μM", "result": 53.07, "unit": "%"}, {"measurement": "TNF-alpha Suppression", "setting": "TNF-α secretion; Dexamethasone 0.0 nM, Econazole 8.995 μM", "result": 70.06, "unit": "%"}]}
{"smiles": "Clc1ccccc1C(c1ccccc1)(c1ccccc1)n1ccnc1", "note": "[Clotrimazole, clotrimazole]", "values": [{"measurement": "TNF-alpha Suppression", "setting": "TNF-α secretion; Diflorasone 0.0 nM, Clotrimazole 0.008 μM", "result": 4.92, "unit": "%"}, {"measurement": "TNF-alpha Suppression", "setting": "TNF-α secretion; Diflorasone 0.0 nM, Clotrimazole 0.014 μM", "result": 5.86, "unit": "%"}, {"measurement": "TNF-alpha Suppression", "setting": "TNF-α secretion; Diflorasone 0.0 nM, Clotrimazole 0.031 μM", "result": 12.47, "unit": "%"}, {"measurement": "TNF-alpha Suppression", "setting": "TNF-α secretion; Diflorasone 0.0 nM, Clotrimazole 0.063 μM", "result": 11.43, "unit": "%"}, {"measurement": "TNF-alpha Suppression", "setting": "TNF-α secretion; Diflorasone 0.0 nM, Clotrimazole 0.125 μM", "result": 18.40, "unit": "%"}, {"measurement": "TNF-alpha Suppression", "setting": "TNF-α secretion; Diflorasone 0.0 nM, Clotrimazole 0.250 μM", "result": 14.29, "unit": "%"}, {"measurement": "TNF-alpha Suppression", "setting": "TNF-α secretion; Diflorasone 0.0 nM, Clotrimazole 0.500 μM", "result": 20.07, "unit": "%"}, {"measurement": "TNF-alpha Suppression", "setting": "TNF-α secretion; Diflorasone 0.0 nM, Clotrimazole 1.000 μM", "result": 19.90, "unit": "%"}, {"measurement": "TNF-alpha Suppression", "setting": "TNF-α secretion; Diflorasone 0.0 nM, Clotrimazole 2.000 μM", "result": 30.02, "unit": "%"}]}
